“And” between values parts separate entries of the source, which are not always exact repeats. Identical values can stand only once.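 A five-concentration, 48-hour dose response in 96-well plates underlies each endpoint, interpolated linearly between surrounding concentrations. Abbreviation: GI50, concentration required for 50% inhibition of growth. At the TGI there is no net growth.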
Assays:
Assay in all cases: NCI anticancer screen, dose series, 48 h
[1] = system: OVCAR-3 ovarian
[2] = system: SNB-19 CNS
[3] = system: HT29 colon
[4] = system: PC-3 prostate
[5] = system: UO-31 renal
[6] = system: M14 melanoma
[7] = system: HCT-15 colon
[8] = system: SN12C renal
[9] = system: OVCAR-5 ovarian
[10] = system: NCI-H23 lung

Row | SMILES | TGI [1] [µM] | TGI [2] [µM] | TGI [3] | TGI [4] [µM] | TGI [5] [µM] | TGI [6] [µM] | TGI [7] [µM] | TGI [8] [µM] | TGI [9] [µM] | TGI [10] [µM] | GI50 [1] | GI50 [2] [µM] | GI50 [3] | GI50 [4] | GI50 [5] [µM] | GI50 [6] [µM] | GI50 [7] [µM] | GI50 [8] [µM] | GI50 [9] [µM] | GI50 [10] [µM]
1 | C=C(CC)C(=O)c1ccc(OCC(=O)O)c(Cl)c1Cl | 30.1 | 31.3 | 36.3 µM | > 81.8 | 34.3 | 45 | 58.8 | 47.5 | > 62.6 | > 56.2 | – | – | – | – | – | – | – | – | – | –
2 | COC(=O)C1C(=O)C(C(=O)OC)C2CCC1N2C (stereo not drawn) | > 72.1 | > 100 | > 100 µM | > 100 | > 100 | > 100 | > 100 | > 100 | > 100 | – | – | – | – | – | – | – | – | – | – | –
3 | N#CC(Cl)CS(=O)(=O)c1ccccc1 (stereo not drawn) | 7.17 | 35.1 | 53.1 µM | 31.6 | 33.5 | 9.59 | 5.38 | 31.7 | 35.3 | 33.5 | – | – | – | – | – | – | – | – | – | –
4 | CCc1nc(N)nc(N)c1-c1ccc(N2CCNCC2)c([N+](=O)[O-])c1 | > 100 | > 100 | > 100 µM | > 100 | > 100 | 31.9 | > 100 | > 100 | > 100 | > 100 | – | – | – | – | – | – | – | – | – | –
5 | Cc1cc(NS(=O)(=O)c2ccc(-c3cnc(C4CC4)o3)cc2)ccc1Cl | 11.4 | 16.3 | 3.89 µM | 15.3 | 12.5 | 15.9 | 12.7 | 13.9 | 15 | 15.6 | 0.0745 µM | 0.362 | 0.191 µM | 0.272 µM | 0.835 | 0.192 | 0.116 | 0.961 | 0.748 | 0.57
6 | COc1cccc(N2C(=N)/C(=C3\Nc4ccccc4S3)CC2=O)c1 | > 100 | > 100 | > 100 µM | > 100 | > 100 | > 100 | > 100 | > 100 | > 100 | > 100 | 14.8 µM | 18.9 | 3.34 µM | 3.03 µM | 4.1 | > 100 | 0.815 | > 100 | > 100 | 39.4
7 | Nc1ncc(-c2ccc3ncnc(N4CCc5cc(F)c(Cl)cc54)c3c2)cc1C=O | > 100 | > 100 | > 100 µM | > 100 | > 100 | > 100 | > 100 | > 100 | > 100 | > 100 | 1.66 µM | 2.28 | 1.57 µM | 0.824 µM | 0.277 | 1.85 | 2.41 | 1.05 | 0.867 | 2.35
8 | CCN1CCCCCCCCCC(=N/O)/C(=N\O)C1 | > 100 | > 100 | > 100 µM | > 100 | > 100 | > 100 | > 100 | > 100 | > 100 | > 100 | – | – | – | – | – | – | – | – | – | –
9 | O=C1NC(=NCCc2ccccc2F)S/C1=C\c1ccc2ncccc2c1 | 24.2 | > 25 | > 25 µM | > 25 | > 25 | > 25 | > 25 | > 25 | > 25 | > 25 | 7.35 µM | 5.68 | 5.87 µM | 13.4 µM | 6.91 | 8.42 | 1.84 | 8.18 | > 20.4 | 6.12
10 | COc1ccc(/C=C/C(=O)OC2CC34CCNC35CC(OC5(OC)C2OC)c2ccc(OC)c(O)c24)cc1O (stereo not drawn) | > 100 | > 100 | 43.6 µM and > 100 µM | > 100 | > 100 | > 100 | > 100 | > 100 | > 100 | > 100 | 35.5 µM and > 100 µM | – | 19.7 µM and > 100 µM | 38.9 µM and > 100 µM | – | – | – | – | – | –
11 | Cc1c(Br)c(Br)c2c3c1nc(N1CCNCC1)n3CCC2 | 3.01 | 3.01 | 3.2 µM | 2.25 | 2.91 | 3.55 | 3.33 | 2.85 | 3.54 | 4.22 | 1.56 µM | 1.56 | 1.51 µM | 1.04 µM | 1.54 | 1.8 | 1.69 | 1.42 | 1.72 | 2.01
12 | c1ccc(C2=Nc3ccccc3N3CNN=C23)cc1 | > 100 | > 100 | > 100 µM | > 100 | > 100 | > 100 | > 100 | > 100 | > 100 | > 100 | 84.4 µM | > 100 | 52.2 µM | > 100 µM | > 100 | > 100 | 90.6 | > 100 | > 100 | > 100
13 | NC(=O)NC(=O)Nc1ccc(Br)cc1 | > 20.7 | > 39.3 | – | > 100 | > 100 | > 45.1 | > 65.4 | > 100 | > 100 | > 33.3 | – | – | – | – | – | – | – | – | – | –
14 | CC[C@]1(O)CC2CN(CCc3c([nH]c4ccccc34)C(C(=O)OC)(c3cc4c(cc3OC)N(C=O)[C@H]3[C@@](O)(C(=O)OC)[C@H](OC(C)=O)[C@]5(CC)[C@@H]6C[C@@H]6CN6CC[C@]43[C@@H]65)C2)C1 (stereo partly drawn) | < 0.00325 | > 32.5 | 0.033 µM | > 12.3 | > 19.4 | 0.00478 | > 32.5 | > 32.5 | > 32.5 | – | < 0.00325 µM | < 0.00325 | < 0.00325 µM | < 0.00325 µM | 0.173 | < 0.00325 | 0.0365 | < 0.00325 | < 0.00325 | < 0.00325
15 | O=C(NNC1=NS(=O)(=O)c2ccccc2N1c1ccccc1)c1cnccn1 | > 100 | > 100 | > 100 µM | > 100 | > 100 | > 100 | > 100 | > 100 | – | > 100 | > 100 µM | > 100 | > 100 µM | > 100 µM | 67.4 | > 100 | 52.2 | > 100 | – | > 100

Source: PubChem BioAssay (NCI)
